# Data published in patent US7115600B2, “Histamine-3 receptor modulators” (Pfizer Inc., priority 2004, dated 2006).
# Molecular target: T1, rat histamine H3 receptors (Rattus norvegicus, UniProt Q9QYN8)
# T1 construct: Frozen rat frontal brain or frozen human post-mortem frontal brain is homogenized; from tissue; host or cells: rat frontal brain membranes
# Assay: Rat Histamine H3 Receptor Binding
# Settings: frozen rat frontal brain membranes; radioligand 1 nM 3H-N-methyl-histamine; 1 hour incubation; read-out: rH3 Ki
# T1 sequence (Q9QYN8 whole entry): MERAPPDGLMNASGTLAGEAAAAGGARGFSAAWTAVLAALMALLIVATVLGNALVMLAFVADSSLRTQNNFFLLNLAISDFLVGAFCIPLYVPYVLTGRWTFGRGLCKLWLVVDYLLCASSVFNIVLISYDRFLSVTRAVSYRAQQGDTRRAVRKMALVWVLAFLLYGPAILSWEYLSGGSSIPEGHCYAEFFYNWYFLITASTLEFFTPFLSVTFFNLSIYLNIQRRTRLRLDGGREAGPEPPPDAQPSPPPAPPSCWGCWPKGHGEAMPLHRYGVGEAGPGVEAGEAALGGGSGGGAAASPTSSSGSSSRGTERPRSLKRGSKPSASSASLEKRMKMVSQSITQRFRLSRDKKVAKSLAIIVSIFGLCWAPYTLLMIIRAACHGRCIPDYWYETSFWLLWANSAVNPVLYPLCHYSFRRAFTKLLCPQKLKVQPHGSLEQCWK
row,SMILES,Ki
1,"Cc1ccc(S(=O)(=O)OC[C@H]2C[C@H](c3ccc(CN4CCCC4)cc3)C2)cc1 [Example 48, trans-Toluene-4-sulfonic acid 3-(4-pyrrolidin-1-ylmethyl-phenyl)-cyclobutylmethyl ester]",98 nM
2,"Cc1nnc(OC[C@H]2C[C@@H](c3ccc(CN4CCCC4)cc3)C2)c2ccccc12 [Example 78, cis-1-Methyl-4-[3-(4-pyrrolidin-1-ylmethyl-phenyl)-cyclobutylmethoxy]-phthalazine]",110 nM
3,"c1cc([C@H]2C[C@H](CN3CCCC3)C2)ccc1CN1CCCC1 [Example 107, trans-1-[3-(4-Pyrrolidin-1-ylmethyl-phenyl)-cyclobutylmethyl]-pyrrolidine]",2.09 nM
4,"c1ccc2c(c1)CN(C[C@H]1C[C@H](c3ccc(CN4CCCC4)cc3)C1)C2 [Example 125, trans-2-[3-(4-Pyrrolidin-1-ylmethyl-phenyl)-cyclobutylmethyl]-2,3-dihydro-1H-isoindole]",1.77 nM
5,"CCN(CCO)C[C@H]1C[C@H](c2ccc(CN3CCCC3)cc2)C1 [Example 113, trans-2-{Ethyl-[3-(4-pyrrolidin-1-ylmethyl-phenyl)-cyclobutylmethyl]-amino}-ethanol]",4.46 nM
6,"Cc1cc(C(=O)Nc2ccccc2)nc(OC[C@H]2C[C@@H](c3ccc(CN4CCCC4)cc3)C2)n1 [Example 83, cis-6-Methyl-2[3-(4-pyrrolidin-1-ylmethyl-phenyl)-cyclobutylmethoxy]-pyrimidine-4-carboxylic acid phenylamide]",68.8 nM
7,"COc1ccc(OCC2CC(c3ccc(CN4CCCC4)cc3)C2)nn1 (centres unmarked) [Example 44, 3-Methoxy-6-[3-(4-pyrrolidin-1-ylmethyl-phenyl)-cyclobutylmethoxy]-pyridazine]",44.4 nM
8,"CC1CC(C)CN(C[C@H]2C[C@H](c3ccc(CN4CCCC4)cc3)C2)C1 (stereo partly drawn) [Example 114, trans-3,5-Dimethyl-1-[3-(4-pyrrolidin-1-ylmethyl-phenyl)-cyclobutylmethyl]-piperidine]",0.48 nM
9,"c1cnc(OCC2CC(c3ccc(CN4CCCC4)cc3)C2)cn1 (centres unmarked) [Example 40, 2-[3-(4-Pyrrolidin-1-ylmethyl-phenyl)-cyclobutylmethoxy]-pyrazine]",74.3 nM
10,"CC1CCCCN1C[C@H]1C[C@H](c2ccc(CN3CCCC3)cc2)C1 (relative stereo) [Example 117, trans-2-Methyl-1-[3-(4-pyrrolidin-1-ylmethyl-phenyl)-cyclobutylmethyl]-piperidine]",0.73 nM
11,"Fc1cc(F)cc(COCC2CC(c3ccc(CN4CCCC4)cc3)C2)c1 (centres unmarked) [Example 14, 1-(4-{-3-[(3,5-Difluoro-phenyl)methoxymethyl]-cyclobutyl}-benzyl)-pyrrolidine]",79.4 nM
12,"OC1(c2ccc(CN3CCCC3)cc2)CC(COCc2ccccc2)C1 (centres unmarked) [Example 1, 3-Benzyloxymethyl-1-(4-pyrrolidin-1-ylmethyl-phenyl)-cyclobutanol]",8.34 nM
13,"CCc1cnc(OC[C@H]2C[C@H](c3ccc(CN4CCCC4)cc3)C2)nc1 [Example 57, trans-5-Ethyl-2-[3-(4-pyrrolidin-1-ylmethyl-phenyl)-cyclobutylmethoxy]-pyrimidine]",101 nM
14,"c1ccc(OCC2CC(c3ccc(CN4CCCC4)cc3)C2)nc1 (centres unmarked) [Example 42, 2-[3-(4-Pyrrolidin-1-ylmethyl-phenyl)-cyclobutylmethoxy]-pyridine]",131 nM
15,"Fc1cnc(OCC2CC(c3ccc(CN4CCCC4)cc3)C2)nc1C1CCNCC1 (centres unmarked) [Example 74, 5-Fluoro-4-piperidin-4-yl-2-[3-(4-pyrrolidin-1-ylmethyl-phenyl)-cyclobutylmethoxy]-pyrimidine]",12.5 nM
16,"Fc1cnc(N2CCN(C[C@H]3C[C@@H](c4ccc(CN5CCCC5)cc4)C3)CC2)nc1 [Example 102, cis-5-Fluoro-2-{4-[3-(4-pyrrolidin-1-ylmethyl-phenyl)-cyclobutylmethyl]-piperazin-1-yl}-pyrimidine]",1.83 nM
17,"N#Cc1ccccc1COCC1CC(c2ccc(CN3CCCC3)cc2)C1 (centres unmarked) [Example 6, 2-[3-(4-Pyrrolidin-1-ylmethyl-phenyl)-cyclobutylmethoxymethyl]-benzonitrile]",122 nM
18,"CC1CCCN(C[C@H]2C[C@H](c3ccc(CN4CCCC4)cc3)C2)C1 (relative stereo) [Example 118, trans-3-Methyl-1-[3-(4-pyrrolidin-1-ylmethyl-phenyl)-cyclobutylmethyl]-piperidine]",0.65 nM
19,"Cc1cnc(OC[C@H]2C[C@@H](c3ccc(CN4CCCC4)cc3)C2)nc1C1CCCNC1 (relative stereo) [Example 59, cis-5-Methyl-4-piperidin-3-yl-2-[3-(4-pyrrolidin-1-ylmethyl-phenyl)-cyclobutylmethoxy]-pyrimidine]",26.2 nM
20,"Cc1ccc(S(=O)(=O)OCC2CC(c3ccc(CN4CCCC4)cc3)C2)cc1 (centres unmarked) [Example 4, Toluene-4-sulfonic acid 3-(4-pyrrolidin-1-ylmethyl-phenyl)-cyclobutylmethyl ester]",5.65 nM
21,CCCN(CC1CC1)C[C@H]1C[C@H](c2ccc(CN3CCCC3)cc2)C1 [Example 124],0.49 nM
22,"CN(Cc1ccccc1)C[C@H]1C[C@H](c2ccc(CN3CCCC3)cc2)C1 [Example 116, trans-Benzyl-methyl-[3-(4-pyrrolidin-1-ylmethyl-phenyl)-cyclobutylmethyl]-amine]",2.82 nM
23,"c1ccc(C2CCCN2C[C@H]2C[C@H](c3ccc(CN4CCCC4)cc3)C2)nc1 (relative stereo) [Example 109, trans-2-{1-[3-(4-Pyrrolidin-1-ylmethyl-phenyl)-cyclobutylmethyl]-pyrrolidin-2-yl}-pyridine]",2.55 nM
24,"Fc1cnc(N2CCN(C[C@H]3C[C@H](c4ccc(CN5CCCC5)cc4)C3)CC2)nc1 [Example 112, trans-5-Fluoro-2-{4-[3-(4-pyrrolidin-1-ylmethyl-phenyl)-cyclobutylmethyl]-piperazin-1-yl}-pyrimidine]",0.77 nM
25,"Cc1cc(C2CCNC2)nc(OC[C@H]2C[C@@H](c3ccc(CN4CCCC4)cc3)C2)n1 (relative stereo) [Example 66, cis-4-Methyl-6-pyrrolidin-3-yl-2-[3-(4-pyrrolidin-1-ylmethyl-phenyl)-cyclobutylmethoxy]-pyrimidine]",4.75 nM
26,"FC(F)(F)c1cc(-c2ccccc2)nc(OC[C@H]2C[C@@H](c3ccc(CN4CCCC4)cc3)C2)n1 [Example 76, cis-4-Phenyl-2-{[3-(4-pyrrolidin-1-ylmethyl-phenyl)-cyclobutylmethyl]oxy}-6-trifluoromethyl-pyrimidine]",1.89 nM
27,"c1cc([C@H]2C[C@@H](CN3CCNCC3)C2)ccc1CN1CCCC1 [Example 101, cis-1-[3-(4-Pyrrolidin-1-ylmethyl-phenyl)-cyclobutylmethyl]-piperazine]",4.81 nM

# Continued by falling Ki, values first:
row,Ki,SMILES
1,104 nM,"COc1cc(OCC2CC(c3ccc(CN4CCCC4)cc3)C2)nc(OC)n1 (centres unmarked) [Example 46, 2,4-Dimethoxy-6-[3-(4-pyrrolidin-1-ylmethyl-phenyl)-cyclobutylmethoxy]-pyrimidine]"
2,101 nM,"O=C1CN(C[C@H]2C[C@H](c3ccc(CN4CCCC4)cc3)C2)CCN1 [Example 127, trans-4-[3-(4-Pyrrolidin-1-ylmethyl-phenyl)-cyclobutylmethyl]-piperazin-2-one]"
3,74.2 nM,"Cc1ccc(COCC2CC(c3ccc(CN4CCCC4)cc3)C2)cc1 (centres unmarked) [Example 27, 1-{4-[3-(4-Methyl-benzyloxymethyl)-cyclobutyl]-benzyl}-pyrrolidine]"
4,32 nM,"Cc1cnc(C)c(OCC2CC(c3ccc(CN4CCCC4)cc3)C2)n1 (centres unmarked) [Example 41, 2,5-Dimethyl-3-[3-(4-pyrrolidin-1-ylmethyl-phenyl)-cyclobutylmethoxy]-pyrazine]"
5,8.91 nM,"COC[C@@H]1CCCN1C[C@H]1C[C@H](c2ccc(CN3CCCC3)cc2)C1 [Example 128, trans-(S)-2-Methoxymethyl-1-[3-(4-pyrrolidin-1-ylmethyl-phenyl)-cyclobutylmethyl]-pyrrolidine]"
6,8.35 nM,"C[C@@H]1CN(C[C@H]2C[C@@H](c3ccc(CN4CCCC4)cc3)C2)C[C@H](C)O1 [Example 106, cis-(2R,6S)-2,6-Dimethyl-4-[3-(4-pyrrolidin-1-ylmethyl-phenyl)-cyclobutylmethyl]-morpholine]"
7,6.84 nM,"C[C@@H]1CC[C@@H](C)N1C[C@H]1C[C@H](c2ccc(CN3CCCC3)cc2)C1 [Example 123, trans-(2R,5R)-2,5-Dimethyl-1-[3-(4-pyrrolidin-1-ylmethyl-phenyl)-cyclobutylmethyl]-pyrrolidine]"
8,3.93 nM,"c1cc([C@H]2C[C@@H](CN3CCCC3)C2)ccc1CN1CCCC1 [Example 103, cis-1-[3-(4-Pyrrolidin-1-ylmethyl-phenyl)-cyclobutylmethyl]-pyrrolidine]"
9,3.79 nM,"Cc1cnc(OC[C@H]2C[C@@H](c3ccc(CN4CCCC4)cc3)C2)nc1C1CCNC1 (relative stereo) [Example 88, cis-5-Methyl-4-pyrrolidin-3-yl-2-[3-(4-pyrrolidin-1-ylmethyl-phenyl)-cyclobutylmethoxy]-pyrimidine]"
10,3.35 nM,"CC1CCCN1C[C@H]1C[C@H](c2ccc(CN3CCCC3)cc2)C1 (relative stereo) [Example 120, trans-2-Methyl-1-[3-(4-pyrrolidin-1-ylmethyl-phenyl)-cyclobutylmethyl]-pyrrolidine]"
11,2.81 nM,"CC1CCCC(C)N1C[C@H]1C[C@H](c2ccc(CN3CCCC3)cc2)C1 (stereo partly drawn) [Example 121, trans-2,6-Dimethyl-1-[3-(4-pyrrolidin-1-ylmethyl-phenyl)-cyclobutylmethyl]-piperidine]"
12,1.44 nM,"CN(C[C@H]1C[C@H](c2ccc(CN3CCCC3)cc2)C1)C1CCCCC1 [Example 115, trans-Cyclohexyl-methyl-[3-(4-pyrrolidin-1-ylmethyl-phenyl)-cyclobutylmethyl]-amine]"
13,1.34 nM,"CC1CCN(C[C@H]2C[C@H](c3ccc(CN4CCCC4)cc3)C2)CC1 [Example 119, trans-4-Methyl-1-[3-(4-pyrrolidin-1-ylmethyl-phenyl)-cyclobutylmethyl]-piperidine]"
14,0.58 nM,"c1cc([C@H]2C[C@H](CN3CCCCC3)C2)ccc1CN1CCCC1 [Example 108, trans-1-[3-(4-Pyrrolidin-1-ylmethyl-phenyl)-cyclobutylmethyl]-piperidine]"
